Measured values: patent US11840686B2, “Modulation of prekallikrein (PKK) expression” (Ionis Pharmaceuticals, Inc., priority 2013, dated 2023)
Strand notation (5' to 3'): a small letter for the sugar, then the base; units joined by * are phosphorothioate-linked, units joined directly phosphodiester-linked; [ ] holds rarer units or linkages, { } end groups; capitals alone tell only the bases. e = 2'-O-(2-methoxyethyl) (MOE); [5mC] = 5-methylcytosine; d = 2'-deoxy (DNA)

These substances were tested on human PKK mRNA (assay: Antisense inhibition of human PKK mRNA in HepaRG cells, 5,000 nM (Example 2)). Settings: HepaRG cells, electroporation with 5,000 nM antisense oligonucleotide, approximately 24 hours, PKK mRNA by RT-PCR (RTS3454), relative to untreated control cells; Table 5 experiment.
Assay type: cell-based
Description: Additional antisense oligonucleotides were designed targeting a PKK nucleic acid and were tested for their effects on PKK mRNA in vitro.
The chimeric antisense oligonucleotides in the tables below were designed as 5-10-5 MOE gapmers, 4-9-4 MOE gapmers, 4-10-4 MOE gapmers, 4-10-3 MOE gapmers, 3-10-4 MOE gapmers, or 3-10-3 MOE gapmers. The 5-10-5 MOE gapmers are 20 nucleosides in length, wherein the central gap segment comprises of ten 2′-deoxynucleosides and is flanked by wing segments on the 5′ direction and the 3′ direction comprising five nucleosides each. The 4-9-4 MOE gapmers are 17 nucleosides in length, wherein the central gap segment comprises of nine 2′-deoxynucleosides and is flanked by wing segments on the 5′ direction and the 3′ direction comprising four nucleosides each. The 4-10-4 MOE gapmers are 18 nucleosides in length, wherein the central gap segment comprises of ten 2′-deoxynucleosides and is flanked by wing segments on the 5′ direction and the 3′ direction comprising four nucleosides each. The 4-10-3 MOE gapmers are 17 nucleosides in length, wherein the central gap segment comprises of ten 2′-deoxynucleosides and is flanked by wing segments on the 5′ direction and the 3′ direction comprising four and three nucleosides respectively. The 3-10-4 MOE gapmers are 17 nucleosides in length, wherein the central gap segment comprises often 2′-deoxynucleosides and is flanked by wing segments on the 5′ direction and the 3′ direction comprising three and four nucleosides respectively. The 3-10-3 MOE gapmers are 16 nucleosides in length, wherein the central gap segment comprises of ten 2′-deoxynucleosides and is flanked by wing segments on the 5′ direction and the 3′ direction comprising three nucleosides each. Each nucleoside in the 5′ wing segment and each nucleoside in the 3′ wing segment has a 2′-O-methoxyethyl modification. The internucleoside linkages throughout each gapmer are phosphorothioate linkages. All cytosine residues throughout each gapmer are 5-methylcytosines. “Start site” indicates the 5′-most nucleoside to which the gapmer is targeted in the human gene sequence. “Stop site” indicates the 3′-most nucleoside to which the gapmer is targeted in the human gene sequence.
Cultured HepaRG™ cells at a density of 20,000 cells per well were transfected using electroporation with 5,000 nM antisense oligonucleotide. After a treatment period of approximately 24 hours, RNA was isolated from the cells and PKK mRNA levels were measured by quantitative real-time PCR. Human primer probe set RTS3454 was used to measure mRNA levels. PKK mRNA levels were adjusted according to total RNA content, as measured by RIBOGREEN®. The antisense oligonucleotides were tested in a series of experiments that had similar culture conditions. Results are presented as percent inhibition of PKK, relative to untreated control cells.

Substance | % inhibition [%]
546131 (eA*eT*eG*eA*eA*d[5mC]*dG*dG*dT*d[5mC]*dT*dT*d[5mC]*dA*dA*eG*e[5mC]*eT*eG*eT; antisense) [compound 546131] | 75
546136 (eG*eG*eA*eG*eG*dT*dG*dA*dG*dT*d[5mC]*dT*d[5mC]*dT*dT*eG*eT*e[5mC]*eA*e[5mC]; antisense) [compound 546136] | 86
546137 (eA*eT*eT*eG*e[5mC]*dT*dT*d[5mC]*dT*dT*dG*dG*dA*dG*dG*eT*eG*eA*eG*eT; antisense) [compound 546137] | 76
546138 (eA*eA*eA*e[5mC]*eA*d[5mC]*dA*dA*dT*dT*dG*d[5mC]*dT*dT*d[5mC]*eT*eT*eG*eG*eA; antisense) [compound 546138] | 69
546140 (eG*e[5mC]*eT*eT*eG*d[5mC]*dT*dT*dG*dA*dA*dT*dA*dA*dA*eA*eT*e[5mC]*eA*eT; antisense) [compound 546140] | 60
546141 (eG*eA*eA*eA*eT*dA*dA*dG*dT*dT*dG*d[5mC]*dT*dT*dG*e[5mC]*eT*eT*eG*eA; antisense) [compound 546141] | 56
546143 (eG*eG*eA*eA*eA*d[5mC]*dT*dG*dT*dA*dG*d[5mC]*dA*dA*dA*e[5mC]*eA*eA*eG*eG; antisense) [compound 546143] | 46
546144 (e[5mC]*eA*e[5mC]*eA*eG*dG*dA*dA*dA*d[5mC]*dT*dG*dT*dA*dG*e[5mC]*eA*eA*eA*e[5mC]; antisense) [compound 546144] | 75
546146 (eT*eG*eA*eG*eT*d[5mC]*dA*dG*dA*d[5mC]*dA*dT*d[5mC]*d[5mC]*dA*e[5mC]*eA*eG*eG*eA; antisense) [compound 546146] | 72
546147 (eT*e[5mC]*eA*eT*eA*dG*dA*dG*dT*dT*dG*dA*dG*dT*d[5mC]*eA*eG*eA*e[5mC]*eA; antisense) [compound 546147] | 76
546148 (e[5mC]*eG*eT*eT*eT*dT*d[5mC]*dA*dT*dA*dG*dA*dG*dT*dT*eG*eA*eG*eT*e[5mC]; antisense) [compound 546148] | 68
546149 (e[5mC]*e[5mC]*e[5mC]*e[5mC]*eA*d[5mC]*d[5mC]*dT*d[5mC]*dT*dG*dA*dA*dG*dA*eA*eG*eG*e[5mC]*eG; antisense) [compound 546149] | 83
546150 (e[5mC]*eA*eT*e[5mC]*e[5mC]*d[5mC]*d[5mC]*dA*d[5mC]*d[5mC]*dT*d[5mC]*dT*dG*dA*eA*eG*eA*eA*eG; antisense) [compound 546150] | 58
546151 (eG*eG*eA*eA*eG*d[5mC]*dT*dA*d[5mC]*dA*dT*d[5mC]*d[5mC]*d[5mC]*d[5mC]*eA*e[5mC]*e[5mC]*eT*e[5mC]; antisense) [compound 546151] | 76
546152 (eG*eT*eA*e[5mC]*eA*dT*dG*dG*dA*dA*dG*d[5mC]*dT*dA*d[5mC]*eA*eT*e[5mC]*e[5mC]*e[5mC]; antisense) [compound 546152] | 73
546153 (eG*eG*eG*eT*eG*dT*dA*d[5mC]*dA*dT*dG*dG*dA*dA*dG*e[5mC]*eT*eA*e[5mC]*eA; antisense) [compound 546153] | 76

Substance | % inhibition [%]
546154 (eT*eG*eG*e[5mC]*eA*dG*dT*dA*dT*dT*dG*dG*dG*d[5mC]*dA*eT*eT*eT*eG*eG; antisense) [compound 546154] | 85
546155 (e[5mC]*e[5mC]*eT*e[5mC]*eA*dT*d[5mC]*dT*dG*dG*d[5mC]*dA*dG*dT*dA*eT*eT*eG*eG*eG; antisense) [compound 546155] | 47
546156 (eG*eA*eA*eT*eG*dT*dG*d[5mC]*dA*d[5mC]*d[5mC]*dT*d[5mC]*dA*dT*e[5mC]*eT*eG*eG*e[5mC]; antisense) [compound 546156] | 81
546157 (eG*eG*eG*eT*eG*dG*dA*dA*dT*dG*dT*dG*d[5mC]*dA*d[5mC]*e[5mC]*eT*e[5mC]*eA*eT; antisense) [compound 546157] | 85
546159 (eT*eA*eG*e[5mC]*eA*dA*dA*d[5mC]*dA*d[5mC]*d[5mC]*dT*dT*dG*dG*eG*eT*eG*eG*eA; antisense) [compound 546159] | 76
546160 (eA*e[5mC]*eT*eG*eA*dA*dT*dA*dG*d[5mC]*dA*dA*dA*d[5mC]*dA*e[5mC]*e[5mC]*eT*eT*eG; antisense) [compound 546160] | 78
546163 (eA*e[5mC]*eT*eT*eG*d[5mC]*dT*dG*dG*dA*dA*dG*dA*dA*dA*eA*e[5mC]*eT*eG*eA; antisense) [compound 546163] | 42
546164 (eT*eG*eA*eT*eT*dG*dA*dA*d[5mC]*dT*dT*dG*d[5mC]*dT*dG*eG*eA*eA*eG*eA; antisense) [compound 546164] | 33
546165 (e[5mC]*eA*eT*eT*eG*dA*dT*dT*dG*dA*dA*d[5mC]*dT*dT*dG*e[5mC]*eT*eG*eG*eA; antisense) [compound 546165] | 71
546166 (eT*eG*eT*e[5mC]*eA*dT*dT*dG*dA*dT*dT*dG*dA*dA*d[5mC]*eT*eT*eG*e[5mC]*eT; antisense) [compound 546166] | 70
546167 (e[5mC]*eT*e[5mC]*e[5mC]*eA*dT*dG*dT*d[5mC]*dA*dT*dT*dG*dA*dT*eT*eG*eA*eA*e[5mC]; antisense) [compound 546167] | 73
546170 (antisense eG*e[5mC]*eA*eA*e[5mC]*d[5mC]*dA*dA*dA*d[5mC]*d[5mC]*dT*dT*dT*dT*e[5mC]*eT*e[5mC]*e[5mC]*eA) [compound 546170] | 54
546171 (antisense e[5mC]*eT*eA*eT*e[5mC]*dT*dT*dT*d[5mC]*dA*dA*dG*dA*dA*dG*e[5mC]*eA*eA*e[5mC]*e[5mC]) [compound 546171] | 81
546172 (antisense eA*eA*e[5mC]*eA*e[5mC]*dT*dA*dT*d[5mC]*dT*dT*dT*d[5mC]*dA*dA*eG*eA*eA*eG*e[5mC]) [compound 546172] | 81
546173 (antisense e[5mC]*eG*eA*eT*eG*dT*dA*d[5mC]*dT*dT*dT*dT*dG*dG*d[5mC]*eA*eG*eG*eG*eT) [compound 546173] | 84

Same assay, conditions: HepaRG cells, electroporation with 5,000 nM antisense oligonucleotide, approximately 24 hours, PKK mRNA by RT-PCR (RTS3454), relative to untreated control cells; Table 6 experiment

Substance | % inhibition [%]
546174 (antisense e[5mC]*e[5mC]*eT*eG*eT*dT*d[5mC]*dG*dA*dT*dG*dT*dA*d[5mC]*dT*eT*eT*eT*eG*eG) [compound 546174] | 74
546175 (antisense e[5mC]*eT*eG*e[5mC]*eA*d[5mC]*d[5mC]*dT*dG*dT*dT*d[5mC]*dG*dA*dT*eG*eT*eA*e[5mC]*eT) [compound 546175] | 78
546177 (antisense eT*eG*eT*e[5mC]*e[5mC]*dA*dG*dA*dA*dA*d[5mC]*dT*dG*d[5mC]*dA*e[5mC]*e[5mC]*eT*eG*eT) [compound 546177] | 75
546181 (antisense eT*eG*eA*e[5mC]*e[5mC]*dA*d[5mC]*dA*dT*dT*dG*d[5mC]*dT*dT*d[5mC]*eA*eA*eG*eG*eA) [compound 546181] | 75
546183 (antisense e[5mC]*eA*e[5mC]*eT*eT*dA*dT*dT*dT*dG*dA*dT*dG*dA*d[5mC]*e[5mC]*eA*e[5mC]*eA*eT) [compound 546183] | 69
546184 (antisense e[5mC]*eA*eA*eG*e[5mC]*dA*d[5mC]*dT*dT*dA*dT*dT*dT*dG*dA*eT*eG*eA*e[5mC]*e[5mC]) [compound 546184] | 65
546186 (antisense eA*eT*eG*eT*e[5mC]*dT*d[5mC]*dG*dA*dT*dG*dG*d[5mC]*dA*dA*eG*e[5mC]*eA*e[5mC]*eT) [compound 546186] | 84
546192 (antisense eA*eA*eT*eT*eG*dA*d[5mC]*dT*d[5mC]*d[5mC]*dT*d[5mC]*dT*d[5mC]*dA*eT*eA*eT*e[5mC]*eA) [compound 546192] | 51
546193 (antisense e[5mC]*eA*eT*eT*eA*dA*dA*dA*dT*dT*dG*dA*d[5mC]*dT*d[5mC]*e[5mC]*eT*e[5mC]*eT*e[5mC]) [compound 546193] | 57
546196 (antisense e[5mC]*eA*e[5mC]*eT*eG*d[5mC]*dT*dA*dA*d[5mC]*d[5mC]*dT*dT*dA*dG*eA*e[5mC]*eA*e[5mC]*eA) [compound 546196] | 83
